# Measurements published in patent US9802880B2, “Cannabigerol derivatives” (VIVACELL BIOTECHNOLOGY ESPAÑA S.L., priority 2014, dated 2017).
# Columns and labels:
# PPARg = PPARg transactivation assay in HEK-293 cells (GAL4-PPARγ / GAL4-luc); details: HEK-293 cells, 6 h treatment, FIG. 1
# [1] = test system: COX-2, iNOS, TNFα and IL-6; assay: 3NP model, inflammatory marker mRNAs in the striatum (real-time PCR); type: in vivo, C57BL/6 mice; details: 3NP-treated mice, 10 mg/kg, FIG. 10 and FIG. 11
# Experimental: Gene expression of inflammatory markers including COX-2, TNFα, IL-6 and iNOS, was down regulated in 3NP+compound III (10 mg/kg) treated mice compared with 3NP+Vehicle mice. Expression levels were calculated using the 2^−ΔΔct method. Values are expressed as means±SEM for 6 animals per group.
# Gene expression of inflammatory markers including COX-2, TNFα, IL-6 and iNOS, was down regulated in 3NP+XII (10 mg/kg) treated mice compared with 3NP+Vehicle mice. Expression levels were calculated using the 2^−ΔΔct method. Values are expressed as means±SEM for 6 animals per group.
# Lesions of the striatum were induced with 3-NP in adult (16 week old; 30 g) male C57BL/6 mice (Harlan Ibérica, Barcelona, Spain). […] The right hemisphere was used to dissect the striatum, which was quickly frozen in RNAlater (Sigma-Aldrich, Germany) to analyzed inflammatory markers were by Real Time PCR. […] We evaluated the general locomotor activity, the hindlimb clasping and dystonia, and the truncal dystonia. […]
# Total RNA was isolated from striata (3NP model) or spinal cord (EAE model) using RNeasy Lipid Tissue Mini Kit (Qiagen, GmbH). The total amount of RNA extracted was quantitated by spectrometry at 260 nm and its purity from the ratio between the absorbance values at 260 and 280 nm. […] Expression levels were calculated using the 2^−ΔΔct method.
# 3NP-lesioned mice = assay: Huntington's disease 3NP model, behavioral score; type: in vivo, C57BL/6 mice; details: 10 mg/kg i.p., four injections, FIG. 9
# Experimental: Mice were subjected to behavioral tests for determining their neurological status after the treatment with compounds I (10 mg/kg) (A), III (10 mg/kg) (B) and XII (10 mg/kg) (C). Hind limb clasping, Locomotor activity, Hind limb dystonia and Truncal Dystonia were rated from 0 to 2 based on severity: a score of 0 typically indicates normal function and 2 seriously affected. Values are expressed as means±SEM for 8 animals per group.
# Lesions of the striatum were induced with 3-NP in adult (16 week old; 30 g) male C57BL/6 mice (Harlan Ibérica, Barcelona, Spain). To this end, mice were subjected to seven intraperitoneal (i.p.) injections of 3NP (one injection each 12 hours) at a dose of 50 mg/kg (prepared in phosphate-buffered saline) for 3 days. These animals and their respective non-lesioned controls were used for pharmacological studies with compounds CBG-Q (compound I) and with compounds III and XII (FIG. 9). At least 6-8 animals were used per experimental group. Treatments consisted of four i.p. injections of the compounds at the indicated doses (one injection each 24 hours), or vehicle (DMSO 0.2%, BSA 5% in PBS) 30 min before the injections of 3NP. All animals were euthanized 12 hours after the last 3NP injection. Once euthanized, animals were dissected and their brains were rapidly removed. The right hemisphere was used to dissect the striatum, which was quickly frozen in RNAlater (Sigma-Aldrich, Germany) to analyzed inflammatory markers were by Real Time PCR. The left hemisphere was fixed in fresh 4% paraformaldehyde (in 0.1M phosphate buffered-saline) for 48 hours at 4° C. and embedded in paraffin wax for histological analysis. Mice were subjected to behavioral tests for determining their neurological status. We evaluated the general locomotor activity, the hindlimb clasping and dystonia, and the truncal dystonia. All behavioral tests were conducted prior to drug injections to avoid acute effects of the compounds under investigation.
smiles,measurement,setting,value
"CCCCCC1=C(NCC)C(=O)C(C/C=C(\C)CCC=C(C)C)=C(O)C1=O [Compound III, 6-(3,7-dimethyl-octa-2,6-dienyl)-5-hydroxy-3-pentyl-2-ethylamino-[1,4]benzoquinone]",PPARg activation (fold) compared with CBG-Q,PPARg,higher efficiency than CBG-Q
same,"up-regulation of pro-inflammatory markers COX-2, iNOS, TNFα and IL-6 in the striatum",[1],attenuated the up-regulation
same,"clinical symptoms induced by 3-NP intoxication (hind limb clasping, locomotor activity, hind limb dystonia, truncal dystonia)",3NP-lesioned mice,clearly alleviates such symptomatology
